Assay results from patent US20200085839A1, “COMBINATION OF IMMUNOTHERAPEUTICS AND BISFLUOROALKYL-1,4-BENZODIAZEPINONE COMPOUNDS FOR TREATING LYMPHOMAS” (Ayala Pharmaceuticals Inc., priority 2018, published 2020).
Where two headings read alike, the source gives them in different places.

How the values were obtained:
Format in all cases: cell-based, human
GFP^+ LPL line = assay: Lysis of GFP expressing tumor cell lines by BCMA-CAR-T cells and/or Compound (1); conditions: BCMA-CAR-T cells and Compound (1) combined; 36 h
Source text: Multiple unique fully human scFvs to BCMA are generated, and CARs based on these scFvs are generated. Multiple scFvs are identified by screening a fully human scFv phage library (>6×10^10 scFvs) with BCMA-Fc fusion protein and then 3T3 cells expressing human BCMA. FACS analysis of phage antibody clones against BCMA-3T3 and parental 3T3 cell lines is used to confirm unique positive clones.
The generated scFvs are used to generate BCMA-targeted CARs. These BCMA-targeted CARs have similar structure, e.g., each has a transmembrane domain comprising a CD28 polypeptide, and an intracellular domain comprising a […] and a co-stimulatory signaling region that comprises a CD28 polypeptide. Each of these BCMA-targeted CARs are cloned into a retroviral vector. These viral vectors are then transduced into HEK 293galv9 viral packaging cells in order to generate a stable packaging line for generation of CAR+ T cells. […] The cell surface expression of BCMA-targeted CARs on human T cells is determined via binding A647 conjugated BCMA-Fc fusion protein. The cell surface expression of BCMA-targeted 28z CAR24 is assessed, and cell surface detection is validated by flow cytometry.
The ability of BCMA-CAR-T cells and Compound (1) to specifically lyse human myeloma cell line (HMCL) is tested. […] At time 0, the percent of GFP tumor line is determined.

DOHH-2 cells (DLBCL) = assay: Cell surface BCMA by FACS; conditions: for EC50: Homo sapiens
Procedure: (§1) […] cell lines, comprising 9 subtypes of lymphomas (see Table 1), were seeded at 1×10^5 cells/well in a total volume of 250 μl into a 96-well plate. The cells were cultured in RPMI medium supplemented with 10% FCS. Compound (22) was added to the cell cultures at a concentration of 10 μM, 1 μM, 100 nM, 10 nM, 1 nM, 100 pM, 10 pM, 1 pM, and 100 fM, and cell lines (8 from Hadassah Medical Center, 31 from Eurofins) were incubated at 37° C. for 24 hours with Compound (22). Following incubation, the cells were collected and BCMA levels were evaluated on the cell surface for cell-bound BCMA. Cells were stained with an anti-BCMA antibody (PE anti-human 19F2 BCMA, Biolegend), and cell surface BCMA levels were determined by FACS analysis (Mean Fluorescence Intensity. Soluble BCMA levels were analyzed by ELISA (Human BCMA/TNFRSF17 DuoSet kit: R&D Systems).

[1] = test system: Daudi cells (Burkitt's Lymphoma); assay: Cell surface BCMA by FACS; conditions: for EC50: Homo sapiens
Procedure: as §1

[2] = test system: EB-2 cells (Burkitt's Lymphoma); assay: Cell surface BCMA by FACS; conditions: for EC50: Homo sapiens
Procedure: as §1

[3] = test system: GA-10 cells (Burkitt's Lymphoma); assay: Cell surface BCMA by FACS; conditions: for EC50: Homo sapiens
Procedure: as §1

HT cells (DLBCL) = assay: Cell surface BCMA by FACS; conditions: for EC50: Homo sapiens
Procedure: as §1

[4] = test system: JVM-2 cells (Mantle Cell Lymphoma); assay: Cell surface BCMA by FACS; conditions: for EC50: Homo sapiens
Procedure: as §1

[5] = test system: L-248 cells (Hodgkin's Lymphoma); assay: Cell surface BCMA by FACS; conditions: for EC50: Homo sapiens
Procedure: as §1

[6] = test system: MC-116 cells (B-cell Lymphoma); assay: Cell surface BCMA by FACS; conditions: for EC50: Homo sapiens
Procedure: as §1

[7] = test system: MHHH-PREB-1 cells (B-cell Lymphoma); assay: Cell surface BCMA by FACS; conditions: for EC50: Homo sapiens, B-cell
Procedure: as §1

[8] = test system: NU-DUL-1 cells (B-cell Lymphoma); assay: Cell surface BCMA by FACS; conditions: for EC50: Homo sapiens
Procedure: as §1

[9] = test system: Raji cells (Burkitt's Lymphoma); assay: Cell surface BCMA by FACS; conditions: for EC50: Homo sapiens
Procedure: as §1

[10] = test system: SUDHL-4 (Eurofins) cells (DLBCL); printed SUDHL in Table 1; assay: Cell surface BCMA by FACS; conditions: for EC50: Homo sapiens, SU-DHL-4
Procedure: as §1

[11] = test system: U937 cells (Histiocytic Lymphoma); assay: Cell surface BCMA by FACS; conditions: for EC50: Homo sapiens
Procedure: as §1

[12] = 24 h, read-out: BCMA (Mean Fluorescence Intensity) EC50

CN1C(=O)[C@@H](NC(=O)[C@H](CCC(F)(F)F)[C@H](CCC(F)(F)F)C(N)=O)N=C(c2ccccc2)c2ccccc21 [Compound 1, (2R,3S)—N-((3S)-1-methyl-2-oxo-5-phenyl-2,3-dihydro-1H-1,4-benzodiazepin-3-yl)-2,3-bis(3,3,3-trifluoropropyl)succinamide]
specific killing of GFP tumor cells (GFP^+ LPL line): specifically killed more cells of the GFP^+ LPL line than either treatment alone

Cc1cccc2c1NC(=O)[C@@H](NC(=O)[C@H](CCC(F)(F)F)[C@H](CCC(F)(F)F)C(N)=O)N=C2c1cccc(F)c1 [Compound (22), (2R,3S)—N-((3S)-5-(3-fluorophenyl)-9-methyl-2-oxo-2,3-dihydro-1H-1,4-benzodiazepin-3-yl)-2,3-bis(3,3,3-trifluoropropyl)succinamide]
mBCMA (MFI) Fold Increase (DOHH-2 cells (DLBCL)): 4.4 fold
BCMA (Mean Fluorescence Intensity) 1 nM Compound (22) (DOHH-2 cells (DLBCL); 1 nM, 24 h): 8033
BCMA (Mean Fluorescence Intensity) 100 nM Compound (22) (DOHH-2 cells (DLBCL); 100 nM, 24 h): 12620
EC50 (DOHH-2 cells (DLBCL); [12]): 0.87 nM
EC50 (DOHH-2 cells (DLBCL); read-out: mBCMA (MFI) EC50): 0.87 nM
mBCMA (MFI) Fold Increase [1]: 4.2 fold
BCMA (Mean Fluorescence Intensity) 1 nM Compound (22) ([1]; 1 nM, 24 h): 1421
BCMA (Mean Fluorescence Intensity) 100 nM Compound (22) ([1]; 100 nM, 24 h): 2242
cell-bound BCMA ([1]; FIG. 7A): increased cell-bound BCMA
EC50 [1, 12]: 4.9 nM
EC50 ([1]; read-out: mBCMA (MFI) EC50): 4.9 nM
mBCMA (MFI) Fold Increase [2]: 5.4 fold
BCMA (Mean Fluorescence Intensity) 1 nM Compound (22) ([2]; 1 nM, 24 h): 18536
BCMA (Mean Fluorescence Intensity) 100 nM Compound (22) ([2]; 100 nM, 24 h): 28188
EC50 ([2]; EB2, 24 h, read-out: BCMA (Mean Fluorescence Intensity) EC50): 0.98 nM
EC50 ([2]; EB2, read-out: mBCMA (MFI) EC50): 0.98 nM
mBCMA (MFI) Fold Increase [3]: 5.6 fold
BCMA (Mean Fluorescence Intensity) 1 nM Compound (22) ([3]; 1 nM, 24 h): 41993
BCMA (Mean Fluorescence Intensity) 100 nM Compound (22) ([3]; 100 nM, 24 h): 51080
EC50 [3, 12]: 0.56 nM
EC50 ([3]; read-out: mBCMA (MFI) EC50): 0.56 nM
mBCMA (MFI) Fold Increase (HT cells (DLBCL)): 3.2 fold
BCMA (Mean Fluorescence Intensity) 1 nM Compound (22) (HT cells (DLBCL); 1 nM, 24 h): 488
BCMA (Mean Fluorescence Intensity) 100 nM Compound (22) (HT cells (DLBCL); 100 nM, 24 h): 895
EC50 (HT cells (DLBCL); [12]): 2.3 nM
EC50 (HT cells (DLBCL); read-out: mBCMA (MFI) EC50): 2.3 nM
mBCMA (MFI) Fold Increase [4]: 7.0 fold
BCMA (Mean Fluorescence Intensity) 1 nM Compound (22) ([4]; 1 nM, 24 h): 4437
BCMA (Mean Fluorescence Intensity) 100 nM Compound (22) ([4]; 100 nM, 24 h): 21757
EC50 [4, 12]: 3.1 nM
EC50 ([4]; read-out: mBCMA (MFI) EC50): 3.1 nM
mBCMA (MFI) Fold Increase [5]: 1.0 fold
BCMA (Mean Fluorescence Intensity) 1 nM Compound (22) ([5]; 1 nM, 24 h): 440
BCMA (Mean Fluorescence Intensity) 100 nM Compound (22) ([5]; 100 nM, 24 h): 445
EC50 [5, 12]: > 10000 nM
EC50 ([5]; read-out: mBCMA (MFI) EC50): > 10000 nM
mBCMA (MFI) Fold Increase [6]: 4.2 fold
BCMA (Mean Fluorescence Intensity) 1 nM Compound (22) ([6]; 1 nM, 24 h): 915
BCMA (Mean Fluorescence Intensity) 100 nM Compound (22) ([6]; 100 nM, 24 h): 1850
EC50 ([6]; MC116, 24 h, read-out: BCMA (Mean Fluorescence Intensity) EC50): 1.9 nM
EC50 ([6]; MC116, read-out: mBCMA (MFI) EC50): 1.9 nM
mBCMA (MFI) Fold Increase [7]: 4.5 fold
BCMA (Mean Fluorescence Intensity) 1 nM Compound (22) ([7]; 1 nM, 24 h): 1363
BCMA (Mean Fluorescence Intensity) 100 nM Compound (22) ([7]; 100 nM, 24 h): 1830
EC50 [7, 12]: 1.7 nM
EC50 ([7]; read-out: mBCMA (MFI) EC50): 1.7 nM
mBCMA (MFI) Fold Increase [8]: 7.0 fold
BCMA (Mean Fluorescence Intensity) 1 nM Compound (22) ([8]; 1 nM, 24 h): 3892
BCMA (Mean Fluorescence Intensity) 100 nM Compound (22) ([8]; 100 nM, 24 h): 4665
EC50 [8, 12]: 0.61 nM
EC50 ([8]; read-out: mBCMA (MFI) EC50): 0.61 nM
mBCMA (MFI) Fold Increase [9]: 2.2 fold
BCMA (Mean Fluorescence Intensity) 1 nM Compound (22) ([9]; 1 nM, 24 h): 521
BCMA (Mean Fluorescence Intensity) 100 nM Compound (22) ([9]; 100 nM, 24 h): 650
EC50 [9, 12]: 1.1 nM
EC50 ([9]; read-out: mBCMA (MFI) EC50): 1.1 nM
EC50 ([10]; SUDHL-4 (Eurofins), read-out: mBCMA (MFI) EC50): 1.6 nM
EC50 ([10]; SUDHL, 24 h, read-out: BCMA (Mean Fluorescence Intensity) EC50): 1.6 nM
mBCMA (MFI) Fold Increase ([10]; SUDHL-4 (Eurofins)): 9.1 fold
BCMA (Mean Fluorescence Intensity) 1 nM Compound (22) ([10]; SUDHL, 1 nM, 24 h): 7568
BCMA (Mean Fluorescence Intensity) 100 nM Compound (22) ([10]; SUDHL, 100 nM, 24 h): 20540
mBCMA (MFI) Fold Increase [11]: 1.0 fold
BCMA (Mean Fluorescence Intensity) 1 nM Compound (22) ([11]; 1 nM, 24 h): 327
BCMA (Mean Fluorescence Intensity) 100 nM Compound (22) ([11]; 100 nM, 24 h): 328
EC50 ([11]; U-937, 24 h, read-out: BCMA (Mean Fluorescence Intensity) EC50): > 10000 nM
EC50 ([11]; U-937, read-out: mBCMA (MFI) EC50): > 10000 nM
